In this test the target is Human immunodeficiency virus type 1 integrase (Human immunodeficiency virus 1, UniProt Q7ZJM1). The test can be described thus: Inhibition of HIV-1 integrase.
Chain of Human immunodeficiency virus type 1 integrase (Q7ZJM1 whole entry): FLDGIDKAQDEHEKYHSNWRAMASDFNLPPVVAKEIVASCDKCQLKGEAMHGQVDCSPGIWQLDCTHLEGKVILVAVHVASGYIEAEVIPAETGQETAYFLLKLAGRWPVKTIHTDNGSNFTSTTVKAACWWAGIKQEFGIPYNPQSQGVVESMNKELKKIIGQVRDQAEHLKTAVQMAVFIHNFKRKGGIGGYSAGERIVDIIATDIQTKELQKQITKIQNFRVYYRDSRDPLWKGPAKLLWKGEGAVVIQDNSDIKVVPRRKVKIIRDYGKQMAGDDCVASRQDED

In the case of `O=C(O)c1c[nH]c2ccc(Cc3cccc(Cl)c3Cl)cc2c1=O`, 69.2 nM corresponded to half-maximal inhibition (IC50).
On to `COc1cc2c(cc1Cc1cccc(Cl)c1F)c(=O)c(C(=O)O)cn2CCO`, for which the concentration for half-maximal inhibition (IC50) – broadly, the midpoint of a concentration-inhibition curve – was 8.91 nM.
Molecule `O=C(O)Cn1cc(C(=O)O)c(=O)c2cc(Cc3cccc(Cl)c3Cl)ccc21` gave a 50% inhibitory concentration (IC50) of 31.6 nM.

The values above are taken from ChEMBL document CHEMBL1208673, “CoMFA and CoMSIA 3D-QSAR studies on quionolone caroxylic acid derivatives inhibitors of HIV-1 integrase” (Eur J Med Chem, 2010).
